In patent publication US20250164463A1, “SCREENING METHOD AND THERAPEUTIC AGENT FOR MENTAL DISORDER” (Fujita Health University, priority 2022, published 2025):

Assays:
[1] = test system: mice after alcohol intake and alcohol abstinence; assay: Social interaction test (SIT) in mice after alcohol intake and alcohol abstinence; assay type: in vivo, C57BL/6J mice; conditions: clemastine 10 mg/kg orally every day from end of EtOH administration to final day of behavioral tests; EtOH+clemastine group vs EtOH group; FIG. 5(b)
Protocol: (§1) Male C57BL/6J mice at the age of 4 weeks (P28) were used. The mice were accommodated in a plastic cage and maintained at a light-dark cycle of 12 hours (lighting at 8:00 A.M.) with ad libitum access to feed and water.
(§2) Sixteen mice were orally administered EtOH (3.0 g/kg; diluted to 25% with sterile water) intermittently from P28 to P45 for 10 days in total (once a day) according to the schedule of FIG. 1(a). Sixteen control mice were orally administered sterile water in the same amount as that in the mice administered EtOH.
All the behavioral experiments were performed between 10:00 A.M. and 6:00 P.M. To obtain an indicator of sociality, a social interaction test was conducted. To obtain an indicator of anxiety behavior, a marble-burying behavior test and a novelty suppressed feeding test were conducted. To obtain an indicator of cognitive function, a novel object recognition test was conducted. […]
The social interaction test was conducted by a method in conformity with a previous report (Mouri A et al., J Neurosci. 2012 Mar. 28; 32(13): 4562-80). […] A time length of a social interaction (e.g., smelling each other, grooming each other, pursuing, mounting, or crawling) was recorded. […]

[2] = test system: mice after alcohol intake and alcohol abstinence; assay: Marble-burying behavior test (MB) in mice after alcohol intake and alcohol abstinence; assay type: in vivo, C57BL/6J mice; conditions: clemastine 10 mg/kg orally every day from end of EtOH administration to final day of behavioral tests; EtOH+clemastine group vs EtOH group; FIG. 5(b)
Protocol: as §1, §2
(§3) All the behavioral experiments were performed between 10:00 A.M. and 6:00 P.M. To obtain an indicator of sociality, a social interaction test was conducted. To obtain an indicator of anxiety behavior, a marble-burying behavior test and a novelty suppressed feeding test were conducted. To obtain an indicator of cognitive function, a novel object recognition test was conducted. To reduce influences from previous experiments, the social interaction test, the marble-burying behavior test, the novelty suppressed feeding test, and the novel object recognition test were conducted in the stated order. […]
The marble-burying behavior test was conducted by a method in conformity with a previous report (Alkam T et al., Behav Brain Res. 2013 Feb. 15; 239: 80-9). […] When ⅔ of the surface area of a marble was covered with the sawdust, the marble was counted as being buried. […]

[3] = test system: myelin sheath marker (MAG) in prefrontal cortexes of mice after alcohol intake and alcohol abstinence; assay: Immunohistochemical staining of prefrontal cortex with myelin sheath marker (MAG), myelin sheath formation enhancing effect; assay type: in vivo; conditions: clemastine 10 mg/kg orally every day after end of EtOH administration, ImageJ, FIG. 8(b), 8(c)
Protocol: Mice (4 mice for each group) were administered EtOH in the same manner as in Examples 1 and 2. Control mice (4 mice for each group) were orally administered sterile water in the same amount as that in the mice administered EtOH. […] Frozen slices of prefrontal cortexes and hippocampuses of the mice prepared were heated in a 10 mM citrate buffer solution (pH 6.0) with a microwave oven for 5 minutes. After washed with PBS, the slices were subjected to blocking with 5% normal horse serum (Cat #S-2000, Vector Laboratories, Inc., Burlingame, CA, USA) in PBST for 1 hour. After that, the slices were caused to react with one of primary antibodies at 4° C. overnight. After washed with PBST, the slices were caused to react with a secondary antibody (1:2,000) at room temperature for 3 hours. The primary antibodies used were a mouse anti-CC1 antibody (1:500; Cat #MABF850, Millipore) and a goat anti-PDGFRα antibody (1:200; Cat #AF1062, R&D Systems Inc.)

[4] = test system: mice after alcohol intake and alcohol abstinence; assay: Novelty suppressed feeding test (NSF) in mice after alcohol intake and alcohol abstinence; assay type: in vivo, C57BL/6J mice; conditions: clemastine 10 mg/kg orally every day from end of EtOH administration to final day of behavioral tests; EtOH+clemastine group vs EtOH group; FIG. 5(b)
Protocol: as §1, §2, §3
The novelty suppressed feeding test was conducted by a method in conformity with a previous report (Lu Q et al., Behav Brain Res. 2019 Oct. 17; 372: 112053). […] A latency time taken for feed intake was recorded. […]

CN1CCC[C@@H]1CCO[C@](C)(c1ccccc1)c1ccc(Cl)cc1 [clemastine]
significantly remitted: social interaction reduction (social interaction test) [1] | anxiety-like behavior (marble-burying behavior test) [2] | myelin sheath abnormality in the prefrontal cortexes (MAG signal intensity) [3] | anxiety-like behavior (novelty suppressed feeding test) [4]
